Among the data in patent publication US11180504B2 (ORCHID PHARMA LTD., priority 2016, dated 2021) are MIC values, retold here.

As a reminder, the MIC is the least concentration at which growth counts as inhibited.

The subject of test [1] is carbapenem sensitive Escherichia coli. Put plainly: MIC by broth micro-dilution (CLSI), carbapenem sensitive E. coli. Particulars: Escherichia coli, ATCC25922, ESBL −ve E. coli ATCC25922; read-out: MIC. Format: cell-based. In general terms: Dilution methods test growth across graded concentrations, often in twofold steps.
Test [2] deals with carbapenem sensitive Pseudomonas aeruginosa. Put plainly: MIC by broth micro-dilution (CLSI), carbapenem sensitive P. aeruginosa. Conditions: Pseudomonas aeruginosa, ATCC27853, Meropenem susceptible P. aeruginosa ATCC27853; read-out: MIC. It counts as cell-based.
For test [3], the system named is methicillin-sensitive Staphylococcus aureus. Description: MIC by broth micro-dilution (CLSI), methicillin-sensitive S. aureus. It counts as cell-based. Particulars: Staphylococcus aureus, ATCC 29213 / MSSA, MSSA S. aureus ATCC29213; read-out: MIC.
Test [4] concerns carbapenemase producing K. pneumoniae. Description: MIC by broth micro-dilution (CLSI), carbapenemase producing K. pneumoniae. It counts as cell-based, Klebsiella pneumoniae. Conditions: Klebsiella pneumoniae, ATCCBAA1705, KPC-2 K. pneumoniae ATCC BAA-1705; read-out: MIC.

Converted amounts (≈) assume the structure as drawn.

For `C[C@@H](NC(=O)Cn1cnnn1)[C@H]1C(=O)N2C(C(=O)O)=C(S[C@@H]3CN[C@H](C(=O)N4CCN(C(=O)[C@@H](N)CN)CC4)C3)[C@H](C)[C@H]12` [Example 456, (4R,5S,6R)-6-((R)-1-(2-(1H-tetrazol-1-yl)acetamido)ethyl)-3-((3S,5S)-5-(4-((S)-2,3-diaminopropanoyl)piperazine-1-carbonyl)pyrrolidin-3-ylthio)-4-methyl-7-oxo-1-azabicyclo[3.2.0]hept-2-ene-2-carboxylic acid], the MIC is 0.5 µg/mL (≈ 0.807 µM) in test [1], 2 µg/mL (≈ 3.23 µM) in test [2], 2 µg/mL (≈ 3.23 µM) in test [3] and 2 µg/mL (≈ 3.23 µM) in test [4].
Take `C[C@@H](NC(=O)Cn1cnnn1)[C@H]1C(=O)N2C(C(=O)O)=C(S[C@@H]3CN[C@H](C(=O)N4CCN(C[C@H](N)CN)CC4)C3)[C@H](C)[C@H]12` [Example 457, (4R,5S,6R)-6-((R)-1-(2-(1H-tetrazol-1-yl)acetamido)ethyl)-3-((3S,5S)-5-(4-((R)-2,3-diaminopropyl)piperazine-1-carbonyl)pyrrolidin-3-ylthio)-4-methyl-7-oxo-1-azabicyclo[3.2.0]hept-2-ene-2-carboxylic acid]: the MIC in test [1] was found to be 0.25 µg/mL (≈ 0.413 µM); in test [2], 1 µg/mL (≈ 1.65 µM); in test [3] it was 2 µg/mL (≈ 3.3 µM); in test [4], 1 µg/mL (≈ 1.65 µM).
As for `C[C@@H](NC(=O)CN1CCCC1)[C@H]1C(=O)N2C(C(=O)O)=C(S[C@@H]3CN[C@H](C(=O)N(C)C)C3)[C@H](C)[C@H]12` [Example 458, (4R,5S,6R)-3-((3S,5S)-5-(dimethylcarbamoyl)pyrrolidin-3-ylthio)-4-methyl-7-oxo-6-((R)-1-(2-(pyrrolidin-1-yl)acetamido)ethyl)-1-azabicyclo[3.2.0)hept-2-eoe-2-carboxylic acid], the MIC in test [1] was found to be 0.5 µg/mL (≈ 1.01 µM); in test [2], 16 µg/mL (≈ 32.4 µM); in test [3] it was 16 µg/mL (≈ 32.4 µM); in test [4] it was 1 µg/mL (≈ 2.03 µM).
Take `C[C@@H](NC(=O)Cn1cnnn1)[C@H]1C(=O)N2C(C(=O)O)=C(S[C@@H]3CN[C@H](C(=O)N4CCO[C@H](CN)C4)C3)[C@H](C)[C@H]12` [Example 460, (4R,5S,5R)-6-((R)-1-(2-(1H-tetrazol-1-yl)acetamido)ethyl)-3-((3S,5S)-5-((R)-2-(aminomethyl)morpholine-4-carbonyl)pyrrolidin-3-ylthio)-4-methyl-7-oxo-1-azabicyclo[3.2.0]hept-2-ene-2-carboxylic acid]: the MIC amounted to 0.5 µg/mL (≈ 0.887 µM) in test [1], 4 µg/mL (≈ 7.1 µM) in test [2], 4 µg/mL (≈ 7.1 µM) in test [3] and 2 µg/mL (≈ 3.55 µM) in test [4].
Take `C[C@@H](NC(=O)Cn1cnnn1)[C@H]1C(=O)N2C(C(=O)O)=C(S[C@@H]3CN[C@H](C(=O)N4CCC(CN)(CO)CC4)C3)[C@H](C)[C@H]12` [Example 463, (4R,5S,6R)-6-((R)-1-(2-(1H-tetrazol-1-yl)acetamido)ethyl)-3-((3S,5S)-5-(4-(aminomethyl)-4-(hydroxymethyl)piperidine-1-carbonyl)pyrrolidin-3-ylthio)-4-methyl-7-oxo-1-azabicyclo[3.2.0]hept-2-ene-2-carboxylic acid]: the MIC stood at 0.5 µg/mL (≈ 0.845 µM) in test [1], 2 µg/mL (≈ 3.38 µM) in test [2], 4 µg/mL (≈ 6.76 µM) in test [3] and 1 µg/mL (≈ 1.69 µM) in test [4].
The like results for `C[C@@H](NC(=O)Cn1cnnn1)[C@H]1C(=O)N2C(C(=O)O)=C(S[C@@H]3CN[C@H](C(=O)N4CCC[C@H]4CN)C3)[C@H](C)[C@H]12` [Example 464, (4R,5S,6R)-6-((R)-1-(2-(1-tetrazol-1-yl)acetamido)ethyl)-3-((3S,5S)-5-((S)-2-(aminomethyl)pyrrolidine-1-carbooyl)pyrrolidin-3-ylthio)-4-methyl-7-oxo-1-azabicyclo[3.2.0]hept-2-ene-2-carboxylic acid] were, in that order, 1 µg/mL (≈ 1.83 µM), 16 µg/mL (≈ 29.2 µM), 4 µg/mL (≈ 7.3 µM) and 4 µg/mL (≈ 7.3 µM).
On the same counts, the results for `C[C@@H](NC(=O)Cn1cnnn1)[C@H]1C(=O)N2C(C(=O)O)=C(S[C@@H]3CN[C@H](C(=O)N4CCC[C@@H]4CN)C3)[C@H](C)[C@H]12` [Example 465, (4R,5S,6R)-6-((R)-1-(2-(1H-tetrazol-1-yl)acetamido)ethyl)-3-((3S,5S)-5-((R)-2-(aminomethyl)pyrrolidine-1-carbonyl)pyrrolidin-3-ylthio)-4-methyl-7-oxo-1-azabicyclo[3.2.0]hept-2-ene-2-carboxylic acid] are 0.5 µg/mL (≈ 0.913 µM), 16 µg/mL (≈ 29.2 µM), 4 µg/mL (≈ 7.3 µM) and 2 µg/mL (≈ 3.65 µM).
On the same counts, the results for `C[C@@H](NC(=O)Cn1cnnn1)[C@H]1C(=O)N2C(C(=O)O)=C(S[C@@H]3CN[C@H](C(=O)N4C[C@@H](O)C[C@H]4CN)C3)[C@H](C)[C@H]12` [Example 470, (4R,5S,6R)-6-((R)-1-(2-(1H-tetrazol-1-yl)acetamido)ethyl)-3-((3S,5S)-5-((2S,4S)-2-(aminomethyl)-4-hydroxypyrrolidine-1-carbonyl)pyrrolidin-3-ylthio)-4-methyl-7-oxo-1-azabicyclo[3.2.0]hept-2-ene-2-carboxylic acid] are 0.5 µg/mL (≈ 0.887 µM), 4 µg/mL (≈ 7.1 µM), 4 µg/mL (≈ 7.1 µM) and 2 µg/mL (≈ 3.55 µM).
Turning to `C[C@@H](NC(=O)Cn1cnnn1)[C@H]1C(=O)N2C(C(=O)O)=C(S[C@@H]3CN[C@H](C(=O)N4CCO[C@H]5CNC[C@H]54)C3)[C@H](C)[C@H]12` [Example 471, (4R,5S,6R)-6-((R)-1-(2-(1H-tetrazol-1-yl)acetamido)ethyl)-4-methyl-3-((3S,5S)-5-((4aR,7aS)-octahydropyrrolo[3,4-b][1,4]oxazine-4-carbonyl)pyrrolidin-3-ylthio)-7-oxo-1-azabicyclo[3.2.0]hept-2-ene-2-carboxylic acid], the MIC came out at 0.5 µg/mL (≈ 0.869 µM) in test [1], 4 µg/mL (≈ 6.95 µM) in test [2], 2 µg/mL (≈ 3.47 µM) in test [3] and 2 µg/mL (≈ 3.47 µM) in test [4].
As for `C[C@@H](NC(=O)Cn1cnnn1)[C@H]1C(=O)N2C(C(=O)O)=C(S[C@@H]3CN[C@H](C(=O)N4CC[C@@H](CN)C4)C3)[C@H](C)[C@H]12` [Example 472, (4R,5S,6R)-6-((R)-1-(2-(1H-tetrazol-1-yl)acetamido)ethyl)-3-((3S,5S)-5-((S)-3-(aminomethyl)pyrrolidine-1-carbonyl)pyrrolidin-3-ylthio)-4-methyl-7-oxo-1-azabicyclo[3.2.0]hept-2-ene-2-carboxylic acid], the MIC in test [1] came to 0.5 µg/mL (≈ 0.913 µM); in test [2], 2 µg/mL (≈ 3.65 µM); in test [3], 4 µg/mL (≈ 7.3 µM); in test [4], 2 µg/mL (≈ 3.65 µM).
As for `C[C@@H](NC(=O)Cn1cnnn1)[C@H]1C(=O)N2C(C(=O)O)=C(S[C@@H]3CN[C@H](C(=O)N4C[C@H](N)C[C@@H]4CN)C3)[C@H](C)[C@H]12` [Example 473, (4R,5S,6R)-6-((R)-1-(2-(1H-tetrazol-1-yl)acetamido)ethyl)-3-((3S,5S)-5-((2R,4R)-4-amino-2-(aminomethyl)pyrrolidine-1-carbonyl)pyrrolidin-3-ylthio)-4-methyl-7-oxo-1-azabicyclo[3.2.0]hept-2-ene-2-carboxylic acid], the MIC was determined as 0.5 µg/mL (≈ 0.889 µM) in test [1], 4 µg/mL (≈ 7.11 µM) in test [2], 4 µg/mL (≈ 7.11 µM) in test [3] and 2 µg/mL (≈ 3.55 µM) in test [4].
For `C[C@@H](NC(=O)Cn1cnnn1)[C@H]1C(=O)N2C(C(=O)O)=C(S[C@@H]3CN[C@H](C(=O)N4C[C@H](N)C[C@@H]4CO)C3)[C@H](C)[C@H]12` [Example 474, (4R,5S,6R)-6-((R)-1-(2-(1H-tetrazol-1-yl)acetamido)ethyl)-3-((3S,5S)-5-((2R,4R)-4-amino-2-(hydroxymethyl)pyrrolidine-1-carbonyl)pyrrolidin-3-ylthio)-4-methyl-7-oxo-1-azabicyclo[3.2.0]hept-2-ene-2-carboxylic acid], the MIC in test [1] was 0.25 µg/mL (≈ 0.444 µM); in test [2], 2 µg/mL (≈ 3.55 µM); in test [3], 4 µg/mL (≈ 7.1 µM); in test [4], 2 µg/mL (≈ 3.55 µM).
As for `C[C@@H](NC(=O)Cn1cnnn1)[C@H]1C(=O)N2C(C(=O)O)=C(S[C@@H]3CN[C@H](C(=O)N4CCC(N)(CO)CC4)C3)[C@H](C)[C@H]12` [Example 475, (4R,5S,6R)-6-((R)-1-(2-(1H-tetrazol-1-yl)acetamido)ethyl)-3-((3S,5S)-5-(4-amino-4-(hydroxymethyl)piperidine-1-carbonyl)pyrrolidin-3-ylthio)-4-methyl-7-oxo-1-azabicyclo[3.2.0]hept-2-ene-2-carboxylic acid], the MIC is 0.5 µg/mL (≈ 0.866 µM) in test [1], 2 µg/mL (≈ 3.46 µM) in test [2], 4 µg/mL (≈ 6.92 µM) in test [3] and 2 µg/mL (≈ 3.46 µM) in test [4].
Regarding `C[C@@H](NC(=O)Cn1cnnn1)[C@H]1C(=O)N2C(C(=O)O)=C(S[C@@H]3CN[C@H](C(=O)N4CCCCC45CCNCC5)C3)[C@H](C)[C@H]12` [Example 476, (4R,5S,6R)-3-((3S,5S)-5-(1,9-diazaspiro[5.5]undecane1-carbonyl)pyrrolidin-3-ylthio)-6-((R)-1-(2-(1H-tetrazol-1-yl)acetamido)ethyl)-4-methyl-7-oxo-1-azabicyclo[3.2.0]hept-2-ene-2-carboxylic acid], the MIC worked out at 1 µg/mL (≈ 1.66 µM) in test [1], 32 µg/mL (≈ 53.2 µM) in test [2], 2 µg/mL (≈ 3.32 µM) in test [3] and 2 µg/mL (≈ 3.32 µM) in test [4].
Turning to `C[C@@H](NC(=O)Cn1cnnn1)[C@H]1C(=O)N2C(C(=O)O)=C(S[C@@H]3CN[C@H](C(=O)N4CCCC45CCNCC5)C3)[C@H](C)[C@H]12` [Example 477, (4R,5S,6R)-3-((3S,5S)-5-(1,8-diazaspiro[4.5]decane-1-carbonyl)pyrrolidin-3-ylthio)-6-((R)-1-(2-(1H-tetrazol-1-yl)acetamido)ethyl)-4-methyl-7-oxo-1-azabicyclo[3.2.0]hept-2-ene-2-carboxylic acid], the MIC in test [1] came to 0.5 µg/mL (≈ 0.851 µM); in test [2] it was 64 µg/mL (≈ 109 µM); in test [3], 2 µg/mL (≈ 3.4 µM); in test [4], 2 µg/mL (≈ 3.4 µM).
